Source: US20130040291A1, “Detection and Quantification of Cellular Stress Response Resolution Pathway Expression and Functionality and the Effects of Agents or Conditions Thereupon” (priority 2011, published 2013)

Tested on: CDNR4 cells
Format: cell-based, murine
Description: Following the cessation of the calibrated stress conditions exposure, the SR assay raw data is collected in the form of positive and negative wells (or cell growth sites) and in the form of viable or dead cell clones. The next steps of the assay involve expanding viable clones and determining their phenotypes. When the phenotype of interest being investigated in the SR assay is cell survival, the clones can be sub-classified using the testing listed in Table 6. This testing is performed as follows. Clones are removed from the tissue culture vessels in which they were placed before the start of the calibrated stress conditions exposure (using methods appropriate for the cell type), and subdivided into 4 different aliquots. Each aliquot is re-plated in an appropriate tissue culture vessel in medium containing the following. For one aliquot, the medium is growth medium (conditioned medium may be used) only; for a second aliquot the medium is supplemented with guanosine or folic acid at a concentration sufficient to enhance the survival and expansion of HPRT^− clones; for a third aliquot, the medium contains the same level of agent as used for the calibrated stress condition exposure, and the fourth aliquot is placed in HAT-medium containing an amount of aminopterin that is sufficient to induce growth arrest and/or cell death in Phen-HPRT^− cells of the cell type of interest (see above). Cell morphology (where informative for cell behavior and/or gene expression) and cell growth are monitored over the next 2, to 4 days to determine the response of the cells to these differing conditions. Cell clones can be subjected to additional testing as desired to evaluate further endpoints of interest and/or can be cryopreserved for future evaluations.
To subgroup Phen-ah clones as Phen-alt-rev or Phen-alt-irr, a representative group of these clones is tested further by subjecting the clones to repeated rounds of exposure to the calibrated stress conditions. Other stress inducing agents also may be used. Each exposure cycle is followed by a period of time to allow the cells to recover, and thus, to resolve the stress environment. After each exposure round, the percentage of cells that are resistant to the stress inducing agent or condition is recorded. […] The parental cell response that has been used in the examples below is defined as greater than 99% sensitivity to the calibrated stress conditions agent or condition, as evidenced by cell cycle arrest and/or cell death following exposure to the SR induction agent. Other stress response endpoints may be used and will depend upon the nature of the stress inducing agent used; these endpoints are incorporated herein.
The murine mammary epithelial cells designated CDNR4 were grown in their preferred growth medium (42% DMEM, 42% Hams F-12, 12% FBS, 1% 100×L-glutamine, 1% pen-strep, 0.5% to 1% bovine pituitary extract) until approximately 6 million cells were available. Cells were removed from the expansion flasks, counted, and replated at a rate of 500,000 cells per […] flask in growth medium. The flasks were assigned randomly to one of two groups: a vehicle-alone exposure (control group); an ENU-exposure (treated) group. […] For group 1 flasks, a volume of growth medium equal to the volume of ENU was added to the flasks. The cells were exposed to this solution for 1 hour at 37° C.; at the end of this time the solution was removed, the cells were washed with PBS at 37° C., and the cells were re-fed with fresh growth medium.
At the end of 2 weeks, the cells were removed from the flasks with trypsin/EDTA and passed through a 20 to 25 micron pore size sterile Nytran filter. The cell suspension was evaluated by light microscopy for evidence of large clumps, and was re-filtered if necessary using a new sterile Nytran filter of the same size to remove any apparent large clumps of cells. […]

[1] = ENU 2.0 micrograms/ml 1 hour (so in the source), 2-week expression period, 6-TG stress
[2] = ENU-exposed, average 6 out of 38 clones

In the case of `CCN(N=O)C(N)=O` [ENU, ethylnitrosourea], the “CE / mutant frequency of Phen-HPRT^− clones” value [1] is reported as 160±40 ×10^−6, the “CE of Phen-alt-irr clones” value [1] is reported as 690±170 ×10^−6 and the “CE of Phen-alt-rev clones” value [1] is reported as 180±130 ×10^−6. The “CE of Phen-parental clones” value [1] was 95±20 ×10^−6, the “reduction in total pro-survival pathway function, ENU-exposed versus vehicle-exposed” value (ENU 20 micrograms/ml 1 hour) was roughly 3 fold and the “fCEs for all surviving cell clones (total pro-survival pathway function)” value (ENU 20 micrograms/ml 1 hour, 6-TG 30 micrograms/ml 4 days, 600 cells per well) was 1210±380 ×10^−6. The “surviving population with damage, Phen-alt-rev clones included” value (ENU-exposed) was 92%, the “average CE for Phen-Hprt- and Phen-alt clones, Phen-alt-rev clones included” value (ENU-exposed cells) was 1100±350 ×10^−6 and the “combined average fCE of Phen-parental and Phen-alt-rev clones” value (ENU-exposed cells) was 280±150 ×10^−6. For the same compound, the “average fCE for Phen-Hprt^− clones and Phen-alt clones together (damage tolerance pathway function)” value (ENU-exposed cells, without Phen-alt-rev clones) was 870±220 ×10^−6, the “effect per unit dose of the calibrated stress conditions exposure upon CEs for Phen-parental clones” value (ENU-exposed cells, 95÷35 micrograms 6-TG) was 2.7 CE/microgram 6-TG and the “post-calibrated stress condition fCEs” value (ENU-exposed cells, SRID-10% of 6-TG (Example 5)) was 95 ×10^−6. The “surviving population with permanent genomic changes” value (ENU-exposed, Hprt mutations plus irreversible phenotypic alterations) was 75%, the “Phen-parental clones as share of the final surviving treated cell population” value (ENU-exposed, average 3 out of 38 clones) was 9% and the “surviving clones with evidence of DNA damage in the Hprt gene” value [2] was 15%. For the same compound, the “surviving clones with reversible phenotypic alterations” value [2] was 17%, the “surviving clones with irreversible phenotypic changes (Phen-alt-irr)” value (ENU-exposed, average 23 out of 38 clones) was 60% and the total survival frequency (ENU-treated cells, calibrated stress conditions at SRID-70% to 80%) was “approximately 128 ×10^−6”. For the same compound, the “reduction in damage avoidance pathway function, Phen-parental clones only” value (treated versus control cells) was “approximately 25 fold” and the “reduction in damage avoidance pathway function, Phen-parental and Phen-alt-rev together” value (versus Phen-parental fCE of control cells) was 12 fold.
